We go through 21 molecules from patent US8791267B2, “Biaryl PDE4 inhibitors for treating inflammatory, cardiovascular and CNS disorders” (Decode Genetics EHF, priority 2007, dated 2014).

Each structure is given as a SMILES string. pIC50: −log10 of the molar value.

One assay concerns the target PDE4 (Homo sapiens, UniProt Q08499). The experiment in a line: In-vitro assay for PDE4 enzymes, real-time enzyme-coupled spectrophotometric assay (Table 9). The format is biochemical. The conditions noted are these: human PDE4D; activity class, Table 9; read-out: hPDE4D.
In the next assay the target is PDE4B (Homo sapiens, UniProt Q07343). Description: In-vitro assay for PDE4 enzymes, real-time enzyme-coupled spectrophotometric assay, PDE4B Activity (Table 10). The format is biochemical. The conditions noted are these: human PDE4B (hPDE4B), enzyme-coupled spectrophotometric assay; read-out: PDE4B Activity, hPDE4B.
PDE4B, sequence (Q07343 whole entry): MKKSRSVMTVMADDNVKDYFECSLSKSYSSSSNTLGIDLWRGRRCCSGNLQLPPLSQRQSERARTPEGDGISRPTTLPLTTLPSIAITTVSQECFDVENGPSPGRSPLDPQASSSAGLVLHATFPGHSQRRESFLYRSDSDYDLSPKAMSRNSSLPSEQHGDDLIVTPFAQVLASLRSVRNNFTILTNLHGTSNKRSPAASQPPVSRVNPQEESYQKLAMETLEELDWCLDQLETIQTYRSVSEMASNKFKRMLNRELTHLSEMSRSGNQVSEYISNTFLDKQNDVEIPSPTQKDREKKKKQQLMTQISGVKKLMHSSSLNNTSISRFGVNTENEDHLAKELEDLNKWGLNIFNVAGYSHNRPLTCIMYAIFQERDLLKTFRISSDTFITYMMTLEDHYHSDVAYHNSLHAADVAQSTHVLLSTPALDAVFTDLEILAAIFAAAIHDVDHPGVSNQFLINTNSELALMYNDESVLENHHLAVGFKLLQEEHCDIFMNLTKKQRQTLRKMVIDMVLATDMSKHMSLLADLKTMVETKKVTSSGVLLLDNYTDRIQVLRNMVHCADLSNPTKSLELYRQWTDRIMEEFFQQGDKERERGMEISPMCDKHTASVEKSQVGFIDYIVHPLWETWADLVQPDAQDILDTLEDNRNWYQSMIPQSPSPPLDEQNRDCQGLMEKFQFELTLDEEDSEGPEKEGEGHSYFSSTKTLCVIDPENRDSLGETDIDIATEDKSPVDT

PDE4, sequence (Q08499 whole entry): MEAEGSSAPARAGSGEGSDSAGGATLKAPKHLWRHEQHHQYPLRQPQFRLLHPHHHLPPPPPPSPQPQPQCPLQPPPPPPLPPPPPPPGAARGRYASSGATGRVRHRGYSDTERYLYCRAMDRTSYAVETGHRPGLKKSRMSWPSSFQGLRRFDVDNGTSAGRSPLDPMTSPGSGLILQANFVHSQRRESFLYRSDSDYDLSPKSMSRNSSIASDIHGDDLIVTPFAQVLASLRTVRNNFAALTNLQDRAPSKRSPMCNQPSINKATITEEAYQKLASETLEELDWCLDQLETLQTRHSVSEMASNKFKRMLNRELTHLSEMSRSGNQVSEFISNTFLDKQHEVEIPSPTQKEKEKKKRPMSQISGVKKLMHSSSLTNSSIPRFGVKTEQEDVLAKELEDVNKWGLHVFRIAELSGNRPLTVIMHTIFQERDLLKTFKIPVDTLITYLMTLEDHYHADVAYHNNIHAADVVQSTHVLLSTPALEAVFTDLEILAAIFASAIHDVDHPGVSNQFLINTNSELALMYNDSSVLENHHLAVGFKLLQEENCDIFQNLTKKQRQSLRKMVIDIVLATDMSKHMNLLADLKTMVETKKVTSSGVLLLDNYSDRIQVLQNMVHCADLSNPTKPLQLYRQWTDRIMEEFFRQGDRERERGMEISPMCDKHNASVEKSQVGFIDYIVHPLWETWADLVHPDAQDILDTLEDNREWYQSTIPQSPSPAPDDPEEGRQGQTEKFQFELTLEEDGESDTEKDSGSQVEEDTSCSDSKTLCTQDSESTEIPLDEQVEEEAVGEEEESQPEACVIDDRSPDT

Turning to `COc1ccc(Cc2ccc(C(N)=O)nc2)c(F)c1-c1cccc(C#N)c1` [P-415, 5-(3′-Cyano-2-fluoro-6-methoxy-biphenyl-3-ylmethyl)-pyridine-2-carboxylic acid amide], the pIC50 at PDE4 and at PDE4B was over 5.30 throughout.

For `COc1ccc(Oc2ccc(N)nc2)c(F)c1-c1cccc(C#N)c1` [P-439, 5-(3′-Cyano-2-fluoro-6-methoxy-biphenyl-3-yloxy)-pyridin-2-yl-ammonium chloride], the pIC50 on PDE4 and at PDE4B was over 5.30 each time.

With `COc1ccc(Cc2ccc(CNC(C)=O)c(F)c2)c(F)c1-c1cccc(Cl)c1` [P-300], the pIC50 at PDE4 and at PDE4B was over 5.30 throughout.

As for `COc1ccc(Cc2ccc(-n3cncn3)nc2)c(F)c1-c1cccc(Cl)c1` [P-412], the pIC50 on PDE4 and at PDE4B was over 5.30 each time.

In the case of `COc1ccc(Cc2ccc(NC(C)=O)cc2)c(F)c1-c1cccc(Br)c1` [P-168], the pIC50 on PDE4 and on PDE4B was over 5.30 throughout.

For `COc1ccc(Cc2c(C)n[nH]c2C)cc1-c1cccc([N+](=O)[O-])c1` [P-089, 4-(6-Methoxy-3′-nitro-biphenyl-3-ylmethyl)-3,5-dimethyl-1H-pyrazole], the pIC50 at PDE4 and on PDE4B was over 5.30 in each case.

For `COc1ccc(Cc2ccc(C(C)N)nc2)c(F)c1-c1cccc(Cl)c1` (stereo not drawn) [P-606, 1-[5-(3′-Chloro-2-fluoro-6-methoxy-biphenyl-3-ylmethyl)-pyridin-2-yl]-ethylamine], the pIC50 at PDE4 and on PDE4B was over 5.30 each time.

For the molecule `[2H]C([2H])(c1ccc(NC(N)=O)cc1)c1ccc(OC)c(-c2cccc(Cl)c2)c1F` [P-532, {4-[(3′-Chloro-2-fluoro-6-methoxy-biphenyl-3-yl)-bisduetero-methyl]-phenyl}-urea], the pIC50 on PDE4 and at PDE4B was over 5.30 each time.

For the molecule `COc1ccc(Cc2ccc(CN)nc2)c(F)c1-c1cccc(Cl)c1` [P-344, C-[5-(3′-Chloro-2-fluoro-6-methoxy-biphenyl-3-ylmethyl)-pyridin-2-yl]-methylamine], the pIC50 at PDE4 and on PDE4B was over 5.30 each time.

Regarding `COc1ccc(Cn2cncn2)cc1-c1cccc(F)c1` [P-058, 1-(3′-Fluoro-6-methoxy-biphenyl-3-ylmethyl)-1H-[1,2,4]triazole], the pIC50 was over 5.30 at PDE4 and 4.70 to 5.30 on PDE4B.

For the molecule `COc1ccc(Cc2ccc(NC(N)=O)cc2)c(F)c1-c1cccc([N+](=O)[O-])c1` [P-181], the pIC50 at PDE4 and at PDE4B was over 5.30 each time.

Regarding `COc1ccc(Cc2ccc(NC(=O)CN(C)C)cc2)c(F)c1-c1cccc([N+](=O)[O-])c1` [P-147], the pIC50 at PDE4 and at PDE4B was over 5.30 throughout.

Regarding `COc1ccc(Cc2ccc(N3CCC3C(N)=O)nc2)c(F)c1-c1cccc(Cl)c1` (stereo not drawn) [P-571, 1-[5-(3′-chloro-2-fluoro-6-methoxy-biphenyl-3-ylmethyl)-pyridin-2-yl]-azetidine-2-carboxylic acid amide], the pIC50 at PDE4 and at PDE4B was over 5.30 throughout.

Turning to `COc1ccc(Cc2ccc(-n3cccn3)cc2)c(O)c1-c1cccc([N+](=O)[O-])c1` [P-173, 6-Methoxy-3′-nitro-3-(4-pyrazol-1-yl-benzyl)-biphenyl-2-ol], the pIC50 on PDE4 and at PDE4B was over 5.30 each time.

With `COc1ccc(Cc2ccc(NC(N)=O)c(O)c2)c(F)c1-c1cccc(Cl)c1` [P-262], the pIC50 on PDE4 and at PDE4B was over 5.30 each time.

As to `COc1ccc(COc2ccc(N)cc2)c(F)c1-c1cccc(Cl)c1` [P-576], the pIC50 on PDE4 and at PDE4B was over 5.30 throughout.

`CCNC(=O)N1CCC[C@@H]1COc1ccc(Cc2ccc(OC)c(-c3cccc(Cl)c3)c2F)cn1` [P-533, (R)-2-[5-(3′-Chloro-2-fluoro-6-methoxy-biphenyl-3-ylmethyl)-pyridin-2-yloxymethyl]-pyrrolidine-1-carboxylic acid ethylamide]: the pIC50 on PDE4 and at PDE4B was over 5.30 in each case.

For the molecule `COc1ccc(C(=O)c2ccc(N)cc2)cc1-c1cccc(F)c1` [P-579], the pIC50 on PDE4 and at PDE4B was over 5.30 throughout.

`NC(=O)Nc1ccc(Cc2ccc(O)c(-c3cccc([N+](=O)[O-])c3)c2F)cc1` [P-508]: the pIC50 on PDE4 is over 5.30; at PDE4B, 4.70 to 5.30.

Turning to `COc1ccc(Cc2ccc(N(C)C)cc2)c(F)c1-c1cccc(Cl)c1` [P-303, [4-(3′-Chloro-2-fluoro-6-methoxy-biphenyl-3-ylmethyl)-phenyl]-dimethyl-amine], the pIC50 at PDE4 and at PDE4B was over 5.30 in each case.

Turning to `COc1ccc(Cn2cnc(CO)c2)cc1-c1cccc([N+](=O)[O-])c1` [P-154, [1-(6-Methoxy-3′-nitro-biphenyl-3-ylmethyl)-1H-imidazol-4-yl]-methanol], the pIC50 on PDE4 and on PDE4B was over 5.30 in each case.
